In brackets after ≈: the same amount, converted by molar mass.

As a reminder, the kinetic solubility is the concentration staying in solution when a stock, usually in DMSO, is diluted into the medium.

For this data set the following is noted: buffer; pH 7.4; 200.0 µM.
`CC(=O)Nc1ccc(NC(=O)COc2ccc(-c3ccccc3)cc2)cc1` returned a solubility (kinetic) of less than 0.4 µg/mL. Compound `CC(C)C(NC(=O)c1ccccc1F)C(=O)Nc1nccs1` (configuration not stated) gave a kinetic solubility of 48.2 µg/mL (≈ 150 µM). Regarding `COc1ccc(NS(=O)(=O)c2cccc(C(=O)OCC(=O)NC3CC3)c2)cc1`, the kinetic solubility amounted to 11.6 µg/mL (≈ 28.7 µM). On to `COCCCNc1nc2nonc2nc1N(C)CC1CCCN1C` (configuration not stated), for which the kinetic solubility was determined as 43.5 µg/mL (≈ 130 µM). Turning to `CC(C)C1/C(=N/O)CC(c2ccccc2)NC1c1ccccc1` (configuration not stated), the solubility (kinetic) was less than 0.3 µg/mL. Compound `COc1cccc(NC(=O)CN(C)C(=O)CC(C)c2ccccc2)c1` (configuration not stated) yielded a kinetic solubility of 40 µg/mL (≈ 118 µM). The compound `COc1ccc(Cl)cc1C(=O)Nc1nc2ccccc2[nH]1` returned a kinetic solubility of 1.2 µg/mL (≈ 3.98 µM).

On to `CN(C(=O)c1ccc(Br)o1)C1(C)CCS(=O)(=O)C1` (configuration not stated), for which the kinetic solubility was greater than 50.4 µg/mL. The compound `Cc1cccc(C(=O)Nc2ccnc(-c3cccnc3)n2)c1` displayed a kinetic solubility of 5.4 µg/mL (≈ 18.6 µM). With `Cc1ccc(-c2ccc(C#N)c(=O)n2CC(=O)N(C)C)cc1`, the solubility (kinetic) was determined as 3.3 µg/mL (≈ 11.2 µM).

Compound `CCCCN(C(=O)c1ccc2c(c1)OCO2)C1CCS(=O)(=O)C1` (configuration not stated) displayed a kinetic solubility greater than 50.9 µg/mL. The compound `CC(CN1CCCC1)OC(=O)c1ccccc1Cl.Cl` (configuration not stated) yielded a kinetic solubility greater than 45.6 µg/mL. In turn, `OCCNc1nc(-c2ccccc2)nc2c1oc1ccccc12` had a kinetic solubility of 0.3 µg/mL (≈ 0.983 µM). On to `CCOc1ccc2oc(C(=O)NCC(C)(C)CN(C)C)c(C)c2c1.Cl`, for which the kinetic solubility was determined as 48.4 µg/mL. For the compound `O=C(CN1CCN(C/C=C/c2ccccc2)CC1)Nc1ccc(F)cc1F`, the kinetic solubility was 49.9 µg/mL (≈ 134 µM).

In turn, `COc1ccc(NC(=O)c2cccnc2N2CCOCC2)cc1` had a kinetic solubility greater than 47 µg/mL.

In the case of `c1cncc(Nc2c3ccccc3nc3ccccc23)c1`, the solubility (kinetic) was found to be 2 µg/mL (≈ 7.37 µM). `CSc1ccccc1NC(=O)Nc1ccccc1Cl` registered a kinetic solubility of 1.7 µg/mL (≈ 5.81 µM). With `CCOc1ccc(NC(=O)c2c3c(nc4ccccc24)CCC3)cc1` the figure was 1.4 µg/mL (≈ 4.21 µM); with `O=C(COc1ccccc1O)NC1CCCC1`, greater than 35.3 µg/mL.

Compound `CCn1c(=O)c([N+](=O)[O-])c(NCCCn2ccnc2)c2ccccc21` returned a kinetic solubility greater than 51.2 µg/mL. For the compound `CC(C)(O)CNC(=O)Nc1ccc(Cl)c(Cl)c1`, the kinetic solubility worked out at 24.6 µg/mL (≈ 88.8 µM).

The compound `Cc1ccc2nsnc2c1S(=O)(=O)N1CCN(C)CC1` had a kinetic solubility of 45.5 µg/mL (≈ 146 µM). In turn, `COC(=O)CN1C(=O)NC2(CCCc3ccccc32)C1=O` (configuration not stated) came in with a solubility (kinetic) greater than 43.2 µg/mL. The compound `COc1ccc(Cl)cc1C(=O)Nc1ccc2c(c1)OCCO2` gave a solubility (kinetic) of 0.9 µg/mL (≈ 2.81 µM).

`COc1ccc(CNC(=O)c2c(C)cc(=O)oc2C)cc1` displayed a kinetic solubility greater than 43.1 µg/mL. The compound `CCc1ccc(NC(=O)CCc2nc3ccccc3[nH]2)cc1` showed a solubility (kinetic) of 0.7 µg/mL (≈ 2.39 µM). `Fc1ccc(CNc2nc(-c3cccnc3)nc3ccccc23)cc1` gave a kinetic solubility of 5.6 µg/mL (≈ 17 µM).

`Cc1cc(C)nc(SCc2ccc(F)cc2)n1` registered a solubility (kinetic) of 10 µg/mL (≈ 40.3 µM). In the case of `Cc1c(C(=O)N2CCCCC2)oc2ccccc12`, the kinetic solubility was 32 µg/mL (≈ 132 µM). Take `O=C(NCCNCc1cccs1)c1ccccc1F`: the solubility (kinetic) is 37.6 µg/mL (≈ 135 µM). On to `O=C(/C=C/c1ccccc1)Oc1coc(CSc2ncccn2)cc1=O`, for which the kinetic solubility was found to be 10.2 µg/mL (≈ 27.8 µM). With `COc1ccc(CCNC(=O)Cc2ccc(Cl)cc2)cc1OC` the figure was greater than 50.1 µg/mL; with `FC(F)(F)c1cccc(-c2nc(-c3ccncc3)no2)c1`, 0.4 µg/mL (≈ 1.37 µM); with `COC(=O)/C=C/c1cnc2ccccc2c1`, greater than 32 µg/mL. Compound `O=C(Nc1cccc(Cl)c1)c1cnccn1` returned a kinetic solubility of 26.5 µg/mL (≈ 113 µM). The compound `Clc1ccccc1OCCCn1ccnc1` gave a kinetic solubility of 26.4 µg/mL (≈ 112 µM). Consider `Cc1c(Cl)cccc1NC(=O)C1C2C=CC(C2)C1C(=O)O` (configuration not stated), for which the kinetic solubility was greater than 45.9 µg/mL.

The compound `Cc1ccc(C(=O)Nc2ccc3c(c2)OCCO3)c(Cl)c1` came in with a solubility (kinetic) of 4.3 µg/mL (≈ 14.2 µM). Compound `O=C(Cc1ccc(Cl)cc1)OCC(=O)N1CCCCCC1` showed a kinetic solubility greater than 46.5 µg/mL. Consider `CCOc1ccc2c(c1)nc(C)n2C`, for which the solubility (kinetic) is greater than 28.5 µg/mL. The compound `CN(Cc1ccc(F)cc1)C(=O)COc1ccc2ccccc2c1` had a kinetic solubility of less than 0.7 µg/mL.

With `CC(C)(C)S(=O)(=O)/C(C#N)=C/Nc1ccccn1`, the solubility (kinetic) is greater than 39.8 µg/mL. For `O=C(CNC(=O)c1ccc2c(c1)OCO2)Nc1ncccc1O`, the solubility (kinetic) is greater than 47.3 µg/mL. On to `CCOCCCNC(=O)c1c[nH]c2c(CC)cccc2c1=O`, for which the kinetic solubility was greater than 45.4 µg/mL. As for `O=C(c1ccccc1)N1CCCCC(Cl)C1=O` (configuration not stated), the solubility (kinetic) is greater than 37.8 µg/mL. In turn, `Cc1cccc(/C=N/NC(=O)c2ccncc2)n1` returned a solubility (kinetic) greater than 36 µg/mL. For `COc1cccc(/C=C(/C(=O)OCC(N)=O)c2ccccc2)c1`, the solubility (kinetic) is greater than 46.7 µg/mL.

`COc1ccc(CCC(=O)Nc2nc(C)c(C(=O)N(C)C)s2)cc1` had a kinetic solubility of 41.3 µg/mL (≈ 119 µM). In the case of `COc1ccc(NC(=O)COC(=O)CCSc2ccccc2)cc1` it was 10.6 µg/mL (≈ 30.7 µM). Consider `Cc1ccc(C(=O)NS(=O)(=O)c2ccc(C)cc2)cc1`, for which the kinetic solubility was greater than 43.4 µg/mL. Compound `CC(NC(=O)c1cccs1)c1ccccc1` (configuration not stated) showed a kinetic solubility greater than 34.7 µg/mL.

Values taken from PubChem BioAssay AID1996.
